Marks after values point to notes of the source that are not given here.
Tested on: sheath blight caused by Rhizoctonia solani
Test: Rice sheath blight field experiment (Lujiang county of Anhui province)
Type: in vivo
Source text: Rice the most important crop in China, and the sheath blight caused by Rhizoctonia solani is one of the most serious diseases in rice.

`OCC1=C[C@@H](N[C@H]2C[C@H](CO)[C@@H](O[C@H]3O[C@@H](CO)[C@H](O)[C@@H](O)[C@@H]3O)[C@H](O)[C@H]2O)[C@H](O)[C@@H](O)[C@@H]1O` [Jinggangmycin (20%), Jinggangmycin] was tested, and the Control efficacy was 69.81%, the “Disease severity, Means ± S.D” value was 26.51 ± 0.91^b % and the “Disease severity, I” value (replicate I) was 27.43%. The “Disease severity, II” value (replicate II) was 26.52% and the “Disease severity, III” value (replicate III) was 25.60%.

Reference: patent publication US20110182860A1 (priority 2009, published 2011)
